Earlier results, collected in US11198731B2 (Exelixis, Inc., priority 2017, dated 2021).
Read-outs that look alike come from different tables or passages of the source.

Tests used:
[1] = tested on: platinum-pretreated NSCLC; conditions: cited from earlier work; for OS hazard ratio: vs docetaxel
[2] = tested on: advanced CRPC with bone metastases; conditions: cited from earlier work
[3] = tested on: NSCLC without EGFR genetic alterations; conditions: cited from earlier work
[4] = tested on: advanced RCC after prior VEGFR-TKI; conditions: cited from earlier work
[5] = tested on: previously-untreated advanced RCC of intermediate- or poor-risk; conditions: cited from earlier work
[6] = tested on: locally advanced or metastatic UC; conditions: cited from earlier work
cisplatin-ineligible UC = conditions: cited from earlier work
[7] = tested on: locally advanced or metastatic UC; conditions: cited from earlier work; remark: listed apart in the source
[8] = tested on: advanced RCC of clear cell or non-clear cell histology; conditions: cited from earlier work
advanced NSCLC = conditions: cited from earlier work
[9] = PD-L1 positive population (2 1% PD-L1 expression)
[10] = subjects with ≥5% PD-L1 expression

CC(=O)O[C@@]12CO[C@@H]1C[C@H](O)[C@@]1(C)C(=O)[C@H](O)C3=C(C)[C@@H](OC(=O)[C@H](O)[C@@H](NC(=O)OC(C)(C)C)c4ccccc4)C[C@@](O)([C@@H](OC(=O)c4ccccc4)[C@H]21)C3(C)C [docetaxel]
Median OS ([1]; ITT population): 9.6 months | ORR ([1]; ITT population): 13% | Median OS [1, 9]: 10.3 months | Treatment-related Grade 3 or 4 AEs [1]: 43% | Median DOR ([1]; in vivo): 6.2 months | Subjects who discontinued treatment due to AE ([1]; in vivo): 19%

C[C@]12C=CC(=O)C=C1CC[C@@H]1[C@@H]2C(=O)C[C@@]2(C)[C@H]1CC[C@]2(O)C(=O)CO [prednisone, reference compound]
Proportion of subjects with a bone scan response (BSR) per IRC ([2]; at Week 12): 3% | Median PFS per investigator ([2]; exploratory endpoint): 2.8 months | Median duration of BSR ([2]; in vivo): 1.8 months | Median duration of OS (Kaplan-Meier) ([2]; in vivo): 9.8 months

C#Cc1cccc(Nc2ncnc3cc(OCCOC)c(OCCOC)cc23)c1 [erlotinib, reference compound]
Progression as best response ([3]; % of subjects): 66% | Estimated median OS ([3]; in vivo): 5.1 months | ORR ([3]; in vivo): 3% | PFS ([3]; second or third line treatment): 1.8 months

CO[C@H]1C[C@@H]2CC[C@@H](C)[C@@](O)(O2)C(=O)C(=O)N2CCCC[C@H]2C(=O)O[C@H]([C@H](C)C[C@@H]2CC[C@@H](OCCO)[C@H](OC)C2)CC(=O)[C@H](C)/C=C(\C)[C@@H](O)[C@@H](OC)C(=O)[C@H](C)C[C@H](C)/C=C/C=C/C=C/1C [everolimus]
ORR per IRC ([4]; ITT population): 3% | Median duration of PFS (Kaplan-Meier) ([4]; Primary Endpoint Intent-to-Treat population): 3.8 months | Median duration of OS (Kaplan-Meier) ([4]; in vivo): 16.5 months | Treatment discontinuations due to AEs ([4]; incidence in each arm): 10%

CCN(CC)CCNC(=O)c1c(C)[nH]c(/C=C2\C(=O)Nc3ccc(F)cc32)c1C [sunitinib, reference compound]
Discontinued study treatment due to an AE ([5]; 16 subjects in each arm): 21% | Adverse events of ≥Grade 3 regardless of causality ([5]; % of subjects): 65% | ≥Grade 3 AE: PPE ([5]; in vivo): 4% | ≥Grade 3 AE: diarrhea ([5]; in vivo): 11% | ≥Grade 3 AE: fatigue ([5]; in vivo): 17% | ≥Grade 3 AE: hematological events ([5]; in vivo): 21% | ≥Grade 3 AE: hypertension ([5]; in vivo): 21%

atezolizumab: humanized immunoglobulin (Ig) G1 monoclonal antibody that targets programmed death receptor 1 ligand (PD-L1)
Duration of response (DOR) ([6]; overall population): 21.7 months | Overall ORR ([6]; overall population): 13% | OS hazard ratio ([6]; overall population, vs chemotherapy): 0.85 | ORR [6, 10]: 23.0% | Median OS (cisplatin-ineligible UC; all subjects irrespective of PD-L1 expression level): 15.9 months | Overall ORR by IRF (cisplatin-ineligible UC; all subjects): 23% | ORR by IRF (cisplatin-ineligible UC; subjects with <5% PD-L1): 21% | ORR by IRF (cisplatin-ineligible UC; [10]): 28% | Adverse events leading to treatment discontinuation ([7]; in vivo): 3.2% | Treatment-emergent anti-therapeutic antibodies detected ([7]; in vivo): 41.5% | irAE: aspartate aminotransferase (AST) increased ([7]; in vivo): 2% | irAE: pneumonitis ([7]; in vivo): 2% | Median OS ([7]; overall population): 7.9 months | Median PFS ([7]; overall population): 2.1 months | Overall ORR by IRF ([7]; overall population): 14.8% | ORR by IRF ([7]; subjects with <5% PD-L1 expression): 9.5% | ORR by IRF ([7]; subjects with ? 5% PD-L1 expression): 26.0% | Median OS [7, 10]: 11.9 months | Median OS ([8]; clear cell RCC): 28.9 months | Overall median PFS ([8]; clear cell RCC): 5.6 months | Grade 4 or 5 treatment-related AEs ([8]; in vivo): no Grade 4 or 5 treatment-related AEs | Treatment-related Grade 3 events ([8]; in vivo): 17% | Median OS ([1]; ITT population): 13.8 months | ORR ([1]; ITT population): 14% | OS hazard ratio ([1]; ITT population): 0.73 | Median OS [1, 9]: 15.7 months | OS hazard ratio ([1]; PD-L1 positive population): 0.74 | AE of any grade: asthenia ([1]; in vivo): 8% | AE of any grade: decreased appetite ([1]; in vivo): 9% | AE of any grade: fatigue ([1]; in vivo): 14% | AE of any grade: nausea ([1]; in vivo): 9% | Immune-related AE: colitis ([1]; in vivo): two | Immune-related AE: hepatitis ([1]; in vivo): two | Immune-related AE: pneumonitis ([1]; in vivo): four | Median DOR ([1]; in vivo): 16.3 months | Subjects who discontinued treatment due to AE ([1]; in vivo): 8% | Treatment-related Grade 3 or 4 AEs ([1]; in vivo): 15% | Median OS (advanced NSCLC; PD-L1 high group): 26.9 months | Median PFS (advanced NSCLC; PD-L1 high group): 5.4 months | Median duration of response (advanced NSCLC; PD-L1 high group): ~10 months | AE leading to discontinuation: Grade 3 or 4 pneumonitis (advanced NSCLC; in vivo): 1% | AE leading to discontinuation: any grade pneumonia (advanced NSCLC; in vivo): 1% | Adverse events leading to treatment discontinuation (advanced NSCLC; in vivo): 7% | Treatment-related AEs of Grade 3 or 4 (advanced NSCLC; in vivo): 9% | Treatment-related Grade 5 event (advanced NSCLC; in vivo): no treatment-related Grade 5 event | OS (advanced NSCLC; unselected untreated NSCLC subjects): 23.5 months
